This is an account of results in US20180265463A1, “Vitamin D3 Derivatives and Pharmaceutical Use Thereof” (Kyoto University, priority 2014, published 2018).

Several values for one entry are separate records, joined by “and”; a condition that tells them apart may be missing. Equal values may be shown once. Entries after “also recorded” stand apart in the source; their conditions may differ.

The term IC50 denotes the point on the concentration scale where inhibition reaches its midpoint.

Holding throughout (format): cell-based, Chinese hamster
In one assay the test system is SREBP-2. Kind of assay: Western-blot analysis of SREBP-2 in CHO-K1 cells. To be noted: 5 μM, 18 h, CHO-K1 cells (FIG. 3). As for the experimental part:
CHO-K1 cells were treated with DMSO alone or each molecule (5 μM) for 18 h. The levels of precursor and mature forms of SREBP-2 were analyzed by Western-blot. Western-blots of actin are shown in lower panel as a loading control.
CHO-K1 cells were treated with DMSO alone or each molecule (5 μM) for 16 h. The levels of precursor and mature forms of SREBP-2 were analyzed by Western-blot. Western-blots of actin are shown in lower panel as a loading control.
(§1) On day 0, CHO-K1 cells were added to 6-well plates at 3.0×10^5 cells per well in medium A. On day 1, the cells were washed with PBS, and then incubated in medium B in the absence or presence of specific test compounds (5 μM). After 16 h of incubation, the cells were washed three times with cold PBS, and lysed with a buffer A (50 mM Tris-HCl (pH 7.5), 150 mM NaCl, 1% (v/v) Nonidet P40, 0.5% (w/v) sodium deoxycholate, 8 M urea, and protease inhibitor cocktail (Nacalai)). The cell lysate were passed 16 times through a 25 G needle and centrifuged at 7,000 g at 4° C. for 10 min. The supernatants were transferred to new tubes, and the pellets were extracted with a buffer A. The resulting buffer was centrifuged at 7,000 g at 4° C. for 10 min, and the supernatants were combined to the previous ones. The resulting lysate was mixed with 0.20 volume of 6×SDS sample buffer (Nacalai) and incubated at room temperature for 30 min. The samples were separated on a 10% SDS-PAGE gel and blotted, using mouse monoclonal antibodies against SREBP-2 (IgG-7D4), SCAP (IgG-9D5), c-Myc (IgG1-MC045), and actin (AC-40). The specific bands were visualized using enhanced chemiluminescence (ECL Prime Western Blotting Detection Reagent, GE Healthcare) on an ImageQuant LAS 500 (GE Healthcare).

The target in another assay is SREBP. Kind of assay: SRE-driven luciferase reporter assay of SREBP activation. The conditions noted are these: luciferase reporter in CHO-K1 cells, lipid-depleted medium, 20-24 h, normalized to β-galactosidase; averages of three independent experiments; read-out: IC50 (μM), inhibitory effect on the activation of SREBP. As for the experimental part:
The transfected cells were treated with DMSO alone, sterols (10 μg/mL cholesterol and 1.0 μg/mL 25-HC), or varied concentrations of 25(OH)D in a medium containing lipid-free serum. Luciferase activity was measured after 20 h incubation, and the data were normalized to β-galactosidase activity. Values are the mean±SD of three independent experiments.
The molecules in a chemical library which consists of 280 endogenous lipid related molecules were screened for their ability to inhibit the expression of a luciferase reporter gene. In this gene, three repeats of sterol regulatory elements (SREs) control expression of luciferase. Lipid depletion activates SREBPs, which bind to the SRE domain and work as transcription factors to express luciferase. The SREBP-responsive reporter construct was co-transfected into Chinese hamster ovary K1 (CHO-K1) cells, along with a control β-galactosidase (β-gal) reporter gene. A constitutively active actin promoter in the reporter gene drives the expression of β-gal. The levels of luciferase expression from the SREBP-responsive reporter gene were normalized to the levels of β-gal expression.
CHO-K1 cells were maintained in a medium A (1:1 mixture of Ham's F-12 medium and Dulbecco's modified Eagle medium, supplemented with 100 units/mL penicillin, 100 μg/mL streptomycin sulfate, and 5% (v/v) fetal bovine serum) at 37° C. under humidified 5% CO2.
On day 0, CHO-K1 cells were added to 96-well plates at 1.0×10^4 cells per well in medium A. On day 1, the cells were co-transfected with an SRE-1-driven luciferase reporter construct (pSRE-Luc) and pAc-β-gal at a 20/1 ratio, using FuGENE(Registered trademark) HD transfection reagent (Promega), according to the manufacturer's protocol. After 8-12 h of incubation, the cells were washed with PBS buffer, then incubated in medium B containing the specific test compounds. […] After 20-24 h of incubation, the cells in each well were lysed by freeze-thaw with Reporter Lysis Buffer (Promega), and aliquots were used to measure luciferase and β-galactosidase activities. Luciferase activity was measured using the Steady-Glo(Registered trademark) Luciferase Assay System (Promega), and β-galactosidase activity was measured using the β-galactosidase Enzyme Assay System (Promega). Luciferase activity was normalized to β-galactosidase activity.

Assay [1] deals with SREBP-2 fragment fused to PLAP (PLAP-BP2513-1141). Nature of the assay: PLAP-BP assay (secreted alkaline phosphatase reporter of SREBP translocation and processing). The conditions noted are these: VD derivatives 10 μM, 20 h, CHO-K1 co-transfected with PLAP-BP2 and SCAP; average of two experiments.
The target in assay [2] is T1, SCAP (Cricetulus griseus, UniProt P97260).
T1 construct: endogenous in cells; host or cells: CHO-K1
T1 sequence (P97260 1-1276): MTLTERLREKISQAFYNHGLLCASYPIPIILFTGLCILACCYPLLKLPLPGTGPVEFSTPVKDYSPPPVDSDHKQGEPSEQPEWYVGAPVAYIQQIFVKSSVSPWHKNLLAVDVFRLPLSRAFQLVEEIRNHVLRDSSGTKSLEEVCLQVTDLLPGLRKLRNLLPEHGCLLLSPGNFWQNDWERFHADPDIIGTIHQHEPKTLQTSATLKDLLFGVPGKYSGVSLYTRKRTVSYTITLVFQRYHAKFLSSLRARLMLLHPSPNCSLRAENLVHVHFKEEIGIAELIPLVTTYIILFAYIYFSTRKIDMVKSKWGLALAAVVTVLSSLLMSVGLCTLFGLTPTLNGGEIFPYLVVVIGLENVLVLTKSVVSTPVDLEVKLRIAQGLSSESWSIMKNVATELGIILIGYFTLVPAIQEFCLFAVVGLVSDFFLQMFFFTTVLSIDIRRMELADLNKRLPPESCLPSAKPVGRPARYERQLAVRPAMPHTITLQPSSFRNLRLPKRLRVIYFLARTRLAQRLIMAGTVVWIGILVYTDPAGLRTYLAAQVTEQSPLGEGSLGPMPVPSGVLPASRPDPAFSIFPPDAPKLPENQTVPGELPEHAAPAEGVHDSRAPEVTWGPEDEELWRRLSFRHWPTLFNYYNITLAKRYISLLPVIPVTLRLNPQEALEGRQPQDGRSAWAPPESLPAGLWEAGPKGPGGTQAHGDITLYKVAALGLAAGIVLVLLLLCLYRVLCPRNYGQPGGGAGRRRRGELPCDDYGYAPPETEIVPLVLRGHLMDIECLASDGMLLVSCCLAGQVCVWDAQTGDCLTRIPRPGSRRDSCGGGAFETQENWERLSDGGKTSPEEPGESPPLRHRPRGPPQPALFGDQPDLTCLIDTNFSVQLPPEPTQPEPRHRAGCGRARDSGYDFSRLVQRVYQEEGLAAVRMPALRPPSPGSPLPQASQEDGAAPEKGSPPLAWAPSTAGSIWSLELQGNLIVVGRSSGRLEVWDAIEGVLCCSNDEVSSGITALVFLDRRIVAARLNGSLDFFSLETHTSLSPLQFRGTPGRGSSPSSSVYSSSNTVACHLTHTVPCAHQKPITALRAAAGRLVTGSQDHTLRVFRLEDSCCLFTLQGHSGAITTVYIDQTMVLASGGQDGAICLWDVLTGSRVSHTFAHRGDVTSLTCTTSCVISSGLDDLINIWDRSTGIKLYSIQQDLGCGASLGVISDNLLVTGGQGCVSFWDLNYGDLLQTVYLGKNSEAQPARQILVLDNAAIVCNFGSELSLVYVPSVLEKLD
Nature of the assay: Western-blot analysis of SCAP levels and ubiquitination in CHO-K1 cells. The conditions noted are these: 5 μM, CHO-K1 cells, different times (FIG. 4). The protocol:
(§2) After incubation for the indicated time, the levels of SCAP and precursor and mature forms of SREBP-2 were analyzed by Western-blot. Western-blots of actin are shown in lower panel as a loading control.
(§3) CHO-K1 cells were treated with DMSO alone or 25(OH)D (5 μM) in the presence or absence of MG-132 (10 μM) for 5 h. The levels of Myc-SCAP were analyzed by Western-blot. Western-blots of actin are shown in lower panel as a loading control.
(§4) CHO-K1 cells were treated with DMSO alone (−) or 25(OH)D (5 μM, +). After 2 h incubation, each dish received MG-132 (10 μM). Following incubation for 2 h, cells were harvested and subjected to immunoprecipitation with monoclonal anti-c-Myc-conjugated agarose beads. The ubiquitination of SCAP was analyzed by Western-blot.
as §1

Assay [3] deals with SCAP. Described as above. As for the experimental part:
as §2, §3, §4, §1

Turning to `C=C1CC[C@H](O)C/C1=C/C=C1\CCC[C@]2(C)[C@@H]([C@H](C)CCCC(C)(C)O)CC[C@@H]12` [25(OH)D, 25-hydroxyvitamin D3], in the assay with SREBP-2, the “level of mature form of SREBP” value is reported as “decreased” and the “level of precursor form of SREBP” value is “decreased”. Besides, the IC50 at SREBP was 1 µM and 1.09 µM. In assay [1], the “secretion of PLAP” value is “inhibited the secretion of PLAP to a greater extent than sterol; also recorded: caused a greater decrease in PLAP secretion than did cholesterol”. Also, the “levels of SCAP” value on SCAP [2] is reported as “reduced”. Besides, in the assay with SCAP [3] (5 μM, 2 h then MG-132 10 μM for 2 h, immunoprecipitation (FIG. 6)), the “ubiquitination of SCAP” value is given as “accelerated”. In the assay on SCAP [3] (25(OH)D 5 μM with MG-132 10 μM, 5 h (FIG. 5)), the “decrease in the levels of SCAP (Myc-SCAP) on addition of MG-132” value is reported as “cancelled”.
